Consider one compound from ChEMBL document CHEMBL1149619, “E,E,E-1-(4-Arylamino-4-oxo-2-butenoyl)-3,5-bis(arylidene)-4-piperidones: a topographical study of some novel potent cytotoxins” (Bioorg Med Chem, 2007).

For data set [1], the system named is Aspergillus fumigatus. In words: Antifungal activity against Aspergillus fumigatus ATCC 280996. It counts as functional.
The subject of a further data set is Mus musculus. In words: Neurotoxicity in mouse assessed as mortality up to 300 mg/kg after 4 hrs. Type of data set: toxicity, organism-based. Also noted: dose 300 mg/kg. Conditions: in vivo.
In another data set the test system is CCRF-CEM. Briefly: Cytotoxicity against human CEM cells. Type of data set: functional, cell-based.
Data set [2] concerns Aspergillus fumigatus. Briefly: Antifungal activity against Aspergillus fumigatus M44251. Type of data set: functional.
In data set [3] the target is T1, Glycylpeptide N-tetradecanoyltransferase 1 (Homo sapiens) (UniProt P30419).
T1 sequence (whole entry): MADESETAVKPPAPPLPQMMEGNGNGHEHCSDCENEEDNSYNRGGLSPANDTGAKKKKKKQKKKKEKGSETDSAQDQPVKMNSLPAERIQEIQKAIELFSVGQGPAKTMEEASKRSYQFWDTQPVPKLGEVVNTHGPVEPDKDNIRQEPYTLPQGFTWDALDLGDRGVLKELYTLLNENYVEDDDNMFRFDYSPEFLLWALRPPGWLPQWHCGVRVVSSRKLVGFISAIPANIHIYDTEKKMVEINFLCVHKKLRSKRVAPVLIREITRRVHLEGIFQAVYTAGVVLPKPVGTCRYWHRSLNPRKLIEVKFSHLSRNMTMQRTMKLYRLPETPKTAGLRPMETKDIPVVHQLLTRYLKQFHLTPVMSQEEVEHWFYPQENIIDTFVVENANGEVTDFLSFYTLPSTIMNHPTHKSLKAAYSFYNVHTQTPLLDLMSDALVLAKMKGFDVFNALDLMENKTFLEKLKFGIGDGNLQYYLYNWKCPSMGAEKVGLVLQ
Briefly: Inhibition of human NMT at 50 uM.

Data set [4] relates to Aspergillus fumigatus. Briefly: Antifungal activity against Aspergillus fumigatus ATCC 280997. Type of data set: functional.
For data set [5], the system named is Aspergillus fumigatus. Briefly: Antifungal activity against Aspergillus fumigatus F69827. Type of data set: functional.
Data set [6] in a line: Cytotoxicity against human Molt 4/C8 cells. Conditions: Molt4/C8. Type of data set: functional, cell-based.
Another data set relates to L1210. Briefly: Cytotoxicity against mouse L1210 cells. It counts as functional, cell-based.
The subject of data set [7] is Aspergillus fumigatus. Briefly: Antifungal activity against Aspergillus fumigatus ATCC 280995. Type of data set: functional.

The term MIC denotes the lowest concentration found to suppress growth. Low readings indicate inhibition by little substance, high ones a need for much substance. As a reminder, the IC50 is the point on the concentration scale where inhibition reaches its midpoint. For orientation: inhibition means the drop in the measured response relative to a control, in per cent. Higher therefore signals strong suppression.

`Cc1ccc(NC(=O)/C=C/C(=O)N2C/C(=C\c3ccc([N+](=O)[O-])cc3)C(=O)/C(=C/c3ccc([N+](=O)[O-])cc3)C2)cc1`: the minimum inhibitory concentration (MIC) with Aspergillus fumigatus [1], against Aspergillus fumigatus [2], in the data set on Aspergillus fumigatus [4], against Aspergillus fumigatus [5] and in the data set with Aspergillus fumigatus [7] was > 50 µg/mL each time. Besides, the Activity result in the data set on Mus musculus is “Non-toxic”. The IC50 in the data set with CCRF-CEM came out at 890 nM; in [6], 700 nM; with L1210 it was 4.4 µM. This compound also displayed an inhibition in data set [3] of 50%.
